# Test results: patent US20180017546A1, “METHODS OF ADMINISTERING AND EVALUATING NITROGEN SCAVENGING DRUGS FOR THE TREATMENT OF HEPATIC ENCEPHALOPATHY” (Horizon Therapeutics, LLC, priority 2012, published 2018)
# Read-outs that look alike come from different tables or passages of the source.
# Assays:
# [1] = tested on: subjects with cirrhosis and HE; test: HALT-HE clinical trial: count of HE events over 16 weeks by plasma ammonia level; type: in vivo, human
# Experimental: The relationship between HE events and fasting ammonia levels was evaluated in subjects from the HALT-HE clinical trial (HPN-100-008, ClinicalTrials.gov identifier NCT00999167). To be eligible for HE analysis, subject had to (1) be included in the HALT-HE (Part B) safety population, (2) have at least one treatment with a study drug (either HPN-100 or placebo), and (3) have a quantifiable measurement of plasma ammonia from a blood specimen drawn at the visit and time point of interest. Of the 178 total subjects enrolled in the HALT-HE study and included in the safety population, 171 met the additional criteria.
# Fasting ammonia levels were measured on day 1 (baseline) and at days 7 and 14. Day 1 values were derived from the measurement closest to, but prior to, initiation of dosing. Day 7 and 14 values were obtained from the nominal visit day and time point (pre-dose or 4-hour). To account for differences in local laboratories used during the clinical trial, local measurements of ammonia were standardized to an upper limit of normal (ULN) of 35 μmol/L according to the following formula:
# Ammoniastd=Ammonialocal*(35/ULN of Ammonialocal).
# […] An HE event was defined as the occurrence of either (1) a West Haven Grade 2 or above or (2) a West Haven Grade 1 AND an asterixis grade increase of 1, if baseline West Haven was 0.
# To describe the relationship between plasma ammonia levels and HE events, ammonia levels at the nominal times were initially grouped into five categories as multiples of the standardized ULN (35 μmol/L): (1) [0-≦0.5], (2) [0.5-≦1.0], (3) [1.0-≦1.5], (4) [1.5-≦2.0], and (5) [>2.0].
# Each subject had between zero and eight HE episodes over the course of their exposure to study drug. The relationship between ammonia at a given nominal time and the number of HE events was modeled using a negative binomial model whereby the effect of study drug was considered only after controlling for ammonia level. […] Based on the model, the number of HE events was estimated for each level of ammonia. By comparing each level of ammonia to the lowest level, the pattern of the relationship could not only be described but also statistically tested through a priori contrasts.
# The relationship between HE events and ammonia levels at day 7 (pre-dose), day 7 (four hours after dosing), day 14 (pre-dose), and day 14 (four hours after dosing) for each of these groups is summarized in FIGS. 2-6. […] The relationship between HE events and ammonia levels at day 1, day 7 (pre-dose), day 7 (four hours after dosing), day 14 (pre-dose), and day 14 (four hours after dosing) for each of these groups is summarized in Tables 1-5, respectively. In each table, the first three rows for each treatment group show results for the three category model ([0-1.0], [>1.0-1.5], and [>1.5]), while the next two rows show results for the two category model ([0-1.5] and [>1.5]). Note that, based on the statistical methodology, estimation of HE events for input category >1.5 in a two category model is not necessarily equal to the result for the three category model.
# [2] = Conversion of PAA prodrug to urinary PAGN in 130 HE patients at steady state dosing; type: in vivo, human; conditions: steady state dosing with NaPBA or equivalent dose of HPN-100
# Experimental: As disclosed herein, additional trials have been performed to evaluate the conversion of PAA to urinary PAGN in subjects with HE. Urinary PAGN output was measured in 130 HE patients during steady state dosing with either NaPBA or an equivalent dose of HPN-100. As summarized in Table 11, the mean percent conversion of PAA prodrug to urinary PAGN in HE patients was about 57%, with a 95% confidence interval range of 52-63%.
# [3] = cited from earlier work; for Mean percent conversion of HPN-100 to urinary PAGN: 8 subjects
# [4] = ammonia on day 7, four hours post-dose, [0-1.0] ULN, three category model
# [5] = ammonia on day 7, four hours post-dose, [0-1.5] ULN, two category model
# [6] = ammonia on day 7, four hours post-dose, [>1.0-1.5] ULN, three category model
# [7] = ammonia on day 7, four hours post-dose, [>1.5] ULN, three category model
# [8] = ammonia on day 7, four hours post-dose, [>1.5] ULN, two category model
# [9] = ammonia on day 14 (pre-dose), [0-1.0] ULN, three category model
# [10] = ammonia on day 14 (pre-dose), [0-1.5] ULN, two category model
# [11] = ammonia on day 14 (pre-dose), [>1.0-1.5] ULN, three category model
# [12] = ammonia on day 14 (pre-dose), [>1.5] ULN, three category model
# [13] = ammonia on day 14 (pre-dose), [>1.5] ULN, two category model
# [14] = ammonia on day 14, four hours post-dose, [0-1.0] ULN, three category model
# [15] = ammonia on day 14, four hours post-dose, [0-1.5] ULN, two category model
# [16] = ammonia on day 14, four hours post-dose, [>1.0-1.5] ULN, three category model
# [17] = ammonia on day 14, four hours post-dose, [>1.5] ULN, three category model
# [18] = ammonia on day 14, four hours post-dose, [>1.5] ULN, two category model
# [19] = pre-dose ammonia on day 1, [0-1.0] ULN, three category model
# [20] = pre-dose ammonia on day 1, [0-1.5] ULN, two category model
# [21] = pre-dose ammonia on day 1, [>1.0-1.5] ULN, three category model
# [22] = pre-dose ammonia on day 1, [>1.5] ULN, three category model
# [23] = pre-dose ammonia on day 1, [>1.5] ULN, two category model
# [24] = pre-dose ammonia on day 7, [0-1.0] ULN, three category model
# [25] = pre-dose ammonia on day 7, [0-1.5] ULN, two category model
# [26] = pre-dose ammonia on day 7, [>1.0-1.5] ULN, three category model
# [27] = pre-dose ammonia on day 7, [>1.5] ULN, three category model
# [28] = pre-dose ammonia on day 7, [>1.5] ULN, two category model
compound,measurement,setting,value
"O=C(CCCc1ccccc1)OCC(COC(=O)CCCc1ccccc1)OC(=O)CCCc1ccccc1 [HPN-100, glyceryl tri-[4-phenylbutyrate]]",No. of per-subject HE Events Estimated over 16 weeks,[1]; [4],0.16
same,No. of per-subject HE Events Estimated over 52 weeks,[1]; [4],0.51
same,No. of per-subject HE Events Max,[1]; [4],2
same,No. of per-subject HE Events Min,[1]; [4],0
same,No. of per-subject HE Events Estimated over 16 weeks,[1]; [5],0.41
same,No. of per-subject HE Events Estimated over 52 weeks,[1]; [5],1.34
same,No. of per-subject HE Events Max,[1]; [5],5
same,No. of per-subject HE Events Min,[1]; [5],0
same,No. of per-subject HE Events Estimated over 16 weeks,[1]; [6],0.88
same,No. of per-subject HE Events Estimated over 52 weeks,[1]; [6],2.85
same,No. of per-subject HE Events Max,[1]; [6],5
same,No. of per-subject HE Events Min,[1]; [6],0
same,No. of per-subject HE Events Estimated over 16 weeks,[1]; [7],1.16
same,No. of per-subject HE Events Estimated over 52 weeks,[1]; [7],3.77
same,No. of per-subject HE Events Max,[1]; [7],4
same,No. of per-subject HE Events Min,[1]; [7],0
same,No. of per-subject HE Events Estimated over 16 weeks,[1]; [8],1.18
same,No. of per-subject HE Events Estimated over 52 weeks,[1]; [8],3.85
same,No. of per-subject HE Events Max,[1]; [8],4
same,No. of per-subject HE Events Min,[1]; [8],0
same,No. of per-subject HE Events Estimated over 16 weeks,[1]; [9],0.36
same,No. of per-subject HE Events Estimated over 52 weeks,[1]; [9],1.18
same,No. of per-subject HE Events Max,[1]; [9],5
same,No. of per-subject HE Events Min,[1]; [9],0
same,No. of per-subject HE Events Estimated over 16 weeks,[1]; [10],0.37
same,No. of per-subject HE Events Estimated over 52 weeks,[1]; [10],1.21
same,No. of per-subject HE Events Max,[1]; [10],5
same,No. of per-subject HE Events Min,[1]; [10],0
same,No. of per-subject HE Events Estimated over 16 weeks,[1]; [11],0.40
same,No. of per-subject HE Events Estimated over 52 weeks,[1]; [11],1.29
same,No. of per-subject HE Events Max,[1]; [11],2
same,No. of per-subject HE Events Min,[1]; [11],0
same,No. of per-subject HE Events Estimated over 16 weeks,[1]; [12],1.29
same,No. of per-subject HE Events Estimated over 52 weeks,[1]; [12],4.21
same,No. of per-subject HE Events Max,[1]; [12],4
same,No. of per-subject HE Events Min,[1]; [12],0
same,No. of per-subject HE Events Estimated over 16 weeks,[1]; [13],1.29
same,No. of per-subject HE Events Estimated over 52 weeks,[1]; [13],4.21
same,No. of per-subject HE Events Max,[1]; [13],4
same,No. of per-subject HE Events Min,[1]; [13],0
same,No. of per-subject HE Events Estimated over 16 weeks,[1]; [14],0.28
same,No. of per-subject HE Events Estimated over 52 weeks,[1]; [14],0.92
same,No. of per-subject HE Events Max,[1]; [14],4
same,No. of per-subject HE Events Min,[1]; [14],0
same,No. of per-subject HE Events Estimated over 16 weeks,[1]; [15],0.33
same,No. of per-subject HE Events Estimated over 52 weeks,[1]; [15],1.09
same,No. of per-subject HE Events Max,[1]; [15],4
same,No. of per-subject HE Events Min,[1]; [15],0
same,No. of per-subject HE Events Estimated over 16 weeks,[1]; [16],0.41
same,No. of per-subject HE Events Estimated over 52 weeks,[1]; [16],1.33
same,No. of per-subject HE Events Max,[1]; [16],2
same,No. of per-subject HE Events Min,[1]; [16],0
same,No. of per-subject HE Events Estimated over 16 weeks,[1]; [17],0.96
same,No. of per-subject HE Events Estimated over 52 weeks,[1]; [17],3.13
same,No. of per-subject HE Events Max,[1]; [17],4
same,No. of per-subject HE Events Min,[1]; [17],0
same,No. of per-subject HE Events Estimated over 16 weeks,[1]; [18],0.97
same,No. of per-subject HE Events Estimated over 52 weeks,[1]; [18],3.14
same,No. of per-subject HE Events Max,[1]; [18],4
same,No. of per-subject HE Events Min,[1]; [18],0
same,No. of per-subject HE Events Estimated over 16 weeks,[1]; [19],0.25
same,No. of per-subject HE Events Estimated over 52 weeks,[1]; [19],0.80
same,No. of per-subject HE Events Max,[1]; [19],2
same,No. of per-subject HE Events Min,[1]; [19],0
same,No. of per-subject HE Events Estimated over 16 weeks,[1]; [20],0.39
same,No. of per-subject HE Events Estimated over 52 weeks,[1]; [20],1.26
same,No. of per-subject HE Events Max,[1]; [20],5
same,No. of per-subject HE Events Min,[1]; [20],0
same,No. of per-subject HE Events Estimated over 16 weeks,[1]; [21],0.61
same,No. of per-subject HE Events Estimated over 52 weeks,[1]; [21],1.98
same,No. of per-subject HE Events Max,[1]; [21],5
same,No. of per-subject HE Events Min,[1]; [21],0
same,No. of per-subject HE Events Estimated over 16 weeks,[1]; [22],1.35
same,No. of per-subject HE Events Estimated over 52 weeks,[1]; [22],4.37
same,No. of per-subject HE Events Max,[1]; [22],4
same,No. of per-subject HE Events Min,[1]; [22],0
same,No. of per-subject HE Events Estimated over 16 weeks,[1]; [23],1.36
same,No. of per-subject HE Events Estimated over 52 weeks,[1]; [23],4.41
same,No. of per-subject HE Events Max,[1]; [23],4
same,No. of per-subject HE Events Min,[1]; [23],0
same,No. of per-subject HE Events Estimated over 16 weeks,[1]; [24],0.29
same,No. of per-subject HE Events Estimated over 52 weeks,[1]; [24],0.95
same,No. of per-subject HE Events Max,[1]; [24],2
same,No. of per-subject HE Events Min,[1]; [24],0
same,No. of per-subject HE Events Estimated over 16 weeks,[1]; [25],0.45
same,No. of per-subject HE Events Estimated over 52 weeks,[1]; [25],1.47
same,No. of per-subject HE Events Max,[1]; [25],5
same,No. of per-subject HE Events Min,[1]; [25],0
same,No. of per-subject HE Events Estimated over 16 weeks,[1]; [26],0.90
same,No. of per-subject HE Events Estimated over 52 weeks,[1]; [26],2.92
same,No. of per-subject HE Events Max,[1]; [26],5
same,No. of per-subject HE Events Min,[1]; [26],0
same,No. of per-subject HE Events Estimated over 16 weeks,[1]; [27],1.38
same,No. of per-subject HE Events Estimated over 52 weeks,[1]; [27],4.50
same,No. of per-subject HE Events Max,[1]; [27],4
same,No. of per-subject HE Events Min,[1]; [27],0
same,No. of per-subject HE Events Estimated over 16 weeks,[1]; [28],1.40
same,No. of per-subject HE Events Estimated over 52 weeks,[1]; [28],4.56
same,No. of per-subject HE Events Max,[1]; [28],4
same,No. of per-subject HE Events Min,[1]; [28],0
same,Mean percent conversion of PAA prodrug to urinary PAGN,[2],consistent
same,Mean percent conversion of HPN-100 to urinary PAGN,[3]; control group of healthy adults with normal hepatic function,68.6%
same,Mean percent conversion of HPN-100 to urinary PAGN,"[3]; hepatic impairment with cirrhosis, Child-Pugh score A",79.6%
same,Mean percent conversion of HPN-100 to urinary PAGN,"[3]; hepatic impairment with cirrhosis, Child-Pugh score B",58.2%
same,Mean percent conversion of HPN-100 to urinary PAGN,"[3]; hepatic impairment with cirrhosis, Child-Pugh score C",85.0%
same,Overall mean percent conversion of HPN-100 to urinary PAGN,[3]; overall for the four subject groups,about 75%
"O=C(O)CCCc1ccccc1 [sodium PBA, reference compound]",Mean percent conversion of PAA prodrug to urinary PAGN,[2],consistent
